Patent US9133439B2, “Differentiation of human embryonic stem cells” (Janssen Biotech, Inc., priority 2009, dated 2015)
Where “and” joins values, the source holds several entries; their conditions need not be identical. Identical values can stand only once. Like-named read-outs stand apart in the source and are kept apart here.

Columns and labels:
[1] = system: H1 human embryonic stem cells (differentiated); type: cell-based
[2] = system: H1 human embryonic stem cells (differentiated); test: Example 3: confirmation screen, total cell number (nuclei) by high content analysis; type: cell-based; settings: relative to control treatment
Description: All wells were fed and treated identically.

[3] = ratio for well treated with individual compound relative to average of wells with DMSO alone
[4] = 2.5 uM, steps 3 and 4, triplicate

| Compound | Total Nuclei [1, 3] | other results |
| --- | --- | --- |
| CC(C)c1cnc(NC(=O)Cc2ccccc2)s1 [BML-259] | 1.04 | Total Nuclei Ratio [2, 4]: 0.99 |
| CN(C)CCCn1cc(C2=C(c3c[nH]c4ccccc34)C(=O)NC2=O)c2ccccc21 [GF 109203X] | 1.05 | Total Nuclei Ratio [2, 4]: 0.82 |
| OC[C@H]1O[C@@H](n2cnc3cc(Cl)c(Cl)cc32)[C@H](O)[C@@H]1O [DRB, 5,6-Dichloro-1-b-D-ribofuranosylbenzimidazole] | 1.01 |  |
| Indirubin-3′-monoxime | 0.96 |  |
| O=C(O)c1cc(N(Cc2ccccc2O)Cc2cc(O)ccc2O)ccc1O [Lavendustin A] | 1.02 |  |
| N#CC(C#N)=C(N)/C(C#N)=C/c1cc(O)c(O)c(O)c1 [Tyrphostin 51] | 1.04 |  |
| O=C1Nc2ccccc2/C1=C1/Nc2ccccc2C1=O [Indirubin] | 1.01 |  |
| O.O.O=c1c(O)c(-c2ccc(O)c(O)c2)oc2cc(O)cc(O)c12 [Quercetin dihydrate] | 0.97 |  |
| CC(C)c1cc(/C=C(\C#N)C(=O)NCCCc2ccccc2)cc(C(C)C)c1O [SU1498] | 1.01 |  |
| CC1=C(O)C(=O)[C@@H]2O[C@@H]2C1=O [Terreic acid] | 1.02 |  |
| O=c1c(-c2ccc(O)cc2)coc2cc(O)cc(O)c12 [Genistein] | 1.03 |  |
| O=S(=O)(c1cccc2c(I)cccc12)N1CCCNCC1 [ML-7] | 0.98 |  |
| O=C(O)c1ccc2nc(-c3ccccc3)c(-c3ccccc3)nc2c1 [BML-257] | 0.98 |  |
| COC(=O)/C=C/c1cc(O)ccc1O [Erbstatin analog] | 0.82 |  |
| COC[C@H]1OC(=O)c2coc3c2[C@@]1(C)C1=C(C3=O)[C@@H]2CCC(=O)[C@@]2(C)C[C@H]1OC(C)=O [Wortmannin] | 1.10 |  |
| N#C/C(=C/c1ccc(O)c(O)c1)C(=O)NCc1ccccc1 [AG-490] | 1.04 | Total Nuclei Ratio [2, 4]: 0.99 |
| Cn1cnc2nc(NCCO)nc(NCc3ccccc3)c21 [iso-Olomoucine] | 1.04 |  |
| Cn1cnc2c(NCc3ccccc3)nc(NCCO)nc21 [Olomoucine] | 1.04 |  |
| Nc1ncnc2c1c(I)cn2[C@@H]1O[C@H](CO)[C@@H](O)[C@H]1O [5-Iodotubercidin] | 0.08 |  |
| O=P(O)(O)C(O)c1ccc2ccccc2c1 (stereo not shown) [HNMPA, Hydroxy-2-naphthalenylmethylphosphonic acid] | 1.01 |  |
| CC(C)(C)c1cc(/C=C(\C#N)C(N)=S)cc(C(C)(C)C)c1O [AG-879] | 1.03 |  |
| Cc1cc2ncc(-c3ccccc3)nc2cc1C [Tyrphostin AG 1295] | 1.08 |  |
| Oc1c2ccccc2c2c3c(cccc13)N=N2 [SP 600125] | 1.04 |  |
| Cc1ccc(S(=O)(=O)/C=C/C#N)cc1 [BAY 11-7082] | 0.93 |  |
| O=C1Cc2c([nH]c3ccc(Br)cc23)-c2ccccc2N1 [Kenpaullone] | 0.99 | Total Nuclei Ratio [2, 4]: 1.02 |
| N#CC(C#N)=Cc1cc(O)c(O)c(O)c1 [Tyrphostin 25] | 1.02 |  |

| Compound | Total Nuclei [1, 3] | other results |
| --- | --- | --- |
| Oc1ccc(-c2nc(-c3ccc(F)cc3)c(-c3ccncc3)[nH]2)cc1 [SB-202190] | 1.08 | Total Nuclei Ratio [2, 4]: 1.08 |
| C[S+]([O-])c1ccc(-c2nc(-c3ccc(F)cc3)c(-c3ccncc3)[nH]2)cc1 (stereo not shown) [SB-203580] | 1.07 | Total Nuclei Ratio [2, 4]: 1.05 |
| N#CC(C#N)=Cc1cc(O)c(O)c([N+](=O)[O-])c1 [Tyrphostin AG 1288] | 1.04 |  |
| CC(C)(C)n1nc(-c2ccc(Cl)cc2)c2c(N)ncnc21 [PP2] | 1.01 |  |
| C/C(O)=C(\C#N)C(=O)Nc1cc(Br)ccc1Br [LFM-A13] | 0.97 |  |
| Cl.Cl.O=S(=O)(NCCNC/C=C/c1ccc(Br)cc1)c1cccc2cnccc12 [H-89] | 1.09 | Total Nuclei Ratio [2, 4]: 1.08 |
| C#Cc1cccc(Nc2ncnc3cc(OC)c(OC)cc23)c1 [BML-265] | 1.06 | Total Nuclei Ratio [2, 4]: 0.97 |
| Cc1ccc(NC(=O)c2cccc(N(C)C)c2)cc1NC(=O)c1ccc(O)cc1 [ZM 336372] | 1.06 |  |
| COc1cc2ncc(-c3ccccc3)nc2cc1OC [AG-1296] | 1.09 |  |
| CC(C)(C)c1cc(C=C(C#N)C#N)cc(C(C)(C)C)c1O [Tyrphostin 9] | 0.28 |  |
| N#CC(C#N)=Cc1ccc(O)c(O)c1 [Tyrphostin 23] | 1.03 |  |
| N#C/C(=C\c1ccc(O)c(O)c1)C(=O)Nc1ccccc1 [AG-494] | 1.10 |  |
| N#CC(=Cc1ccc2[nH]ccc2c1)C(N)=C(C#N)C#N [AG-370] | 1.01 |  |
| O=c1cc(N2CCOCC2)oc2c(-c3ccccc3)cccc12 [LY 294002] | 1.08 | Total Nuclei Ratio [2, 4]: 1.03 |
| Nc1ncc2[nH]cnc2n1 [2-Aminopurine] | 1.07 |  |
| O=c1cc(-c2ccc(O)cc2)oc2cc(O)cc(O)c12 [Apigenin] | 1.05 |  |
| CC[C@H](CO)Nc1nc(NCc2ccccc2)c2ncn(C(C)C)c2n1 [Roscovitine] | 1.03 |  |
| Oc1cc(O)cc(/C=C/c2ccc(O)c(O)c2)c1 [Piceatannol] | 1.07 |  |
| N#CC(C#N)=Cc1ccc([N+](=O)[O-])c(O)c1 [AG-126] | 0.99 |  |
| CC1CNCCN1S(=O)(=O)c1cccc2cnccc12 (stereo not shown) [H-7] | 1.02 | Total Nuclei Ratio [2, 4]: 1.09 |
| O=C1Nc2ccc(I)cc2/C1=C/c1cc(Br)c(O)c(Br)c1 [GW 5074] | 1.06 | Total Nuclei Ratio [2, 4]: 1.11 |
| CCCCCCCCCCCCC/C=C/[C@@H](O)[C@@H](N)CO [Sphingosine] | 1.04 |  |
| COc1ccc(S(=O)(=O)N(CCO)c2ccccc2CN(C)CC=Cc2ccc(Cl)cc2)cc1 [KN-93] | 1.04 | Total Nuclei Ratio ([2]; 1 uM, steps 3 and 4): 1.05 and 1.04 |
| O=C(O)c1cc(NCc2cc(O)ccc2O)ccc1O [HDBA, 2-Hydroxy-5-(2,5-dihydroxybenzylamino)benzoic acid] | 0.99 |  |
| N#C/C(=C\c1ccc(O)c(O)c1)C(N)=O [Tyrphostin 46] | 1.05 |  |
| CO[C@H]1C[C@@H]2CC[C@@H](C)[C@@](O)(O2)C(=O)C(=O)N2CCCC[C@H]2C(=O)O[C@H]([C@H](C)C[C@@H]2CC[C@@H](O)[C@H](OC)C2)CC(=O)[C@H](C)/C=C(\C)[C@@H](O)[C@@H](OC)C(=O)[C@H](C)C[C@H](C)/C=C/C=C/C=C/1C [Rapamycin] | 0.47 |  |

| Compound | Total Nuclei [1, 3] | other results |
| --- | --- | --- |
| CS(=O)(=O)O.Cn1cc(C2=C(c3cn(CCCSC(=N)N)c4ccccc34)C(=O)NC2=O)c2ccccc21 [Ro 31-8220] | 0.09 |  |
| COc1cccc(-c2cc(=O)c3ccccc3o2)c1N [PD-98059] | 0.92 | Total Nuclei Ratio [2, 4]: 0.96 |
| N#C/C(=C\c1cc(Cl)cc(Cl)c1)c1cccnc1 [RG-14620] | 1.02 |  |
| CN(C)c1ccc(C=C2C(=O)Nc3ccccc32)cc1 [SU 4312] | 1.07 |  |
| CN[C@@H]1C[C@H]2O[C@@](C)([C@@H]1OC)n1c3ccccc3c3c4c(c5c6ccccc6n2c5c31)C(=O)NC4 [Staurosporine] | 0.13 |  |
| CO[C@@H]1[C@H](N(C)C(=O)c2ccccc2)C[C@H]2O[C@]1(C)n1c3ccccc3c3c4c(c5c6ccccc6n2c5c31)C(=O)NC4 [PKC-412] | 0.17 |  |
| Cc1cc(O)c2c(=O)c3c(O)cc(O)c4c5c(O)cc(O)c6c(=O)c7c(O)cc(C)c8c1c2c(c34)c(c78)c65 [Hypericin] | 1.07 |  |
| NC(N)=NCCNS(=O)(=O)c1cccc2cnccc12 [HA-1004] | 1.08 | Total Nuclei Ratio [2, 4]: 1.08 |
| N#C/C(=C\c1ccc(O)c(O)c1)C(N)=S [Tyrphostin 47] | 1.00 |  |
| Cc1ccc(-c2nn(C(C)(C)C)c3ncnc(N)c23)cc1 [PP1] | 0.99 |  |
| CNCCNS(=O)(=O)c1cccc2cnccc12 [H-8] | 0.99 |  |
| COc1cc(/C=C(\C#N)C(N)=O)cc(CSc2nc3ccccc3s2)c1O [AG-825] | 1.05 |  |
| COc1cc2ncnc(Nc3cccc(Cl)c3)c2cc1OC [Tyrphostin AG 1478] | 1.10 |  |
| CN([C@@H](Cc1ccc(OS(=O)(=O)c2cccc3cnccc23)cc1)C(=O)N1CCN(c2ccccc2)CC1)S(=O)(=O)c1cccc2cnccc12 [KN-62] | 0.96 | Total Nuclei Ratio ([2]; 1 uM, steps 3 and 4): 1.02 and 1.03 |
| O=S(=O)(c1cccc2cnccc12)N1CCCNCC1 [HA-1077] | 1.02 | Total Nuclei Ratio [2, 4]: 1.07 |
| CC(=O)c1c(O)c(C)c(O)c(Cc2c(O)c3c(c(C(=O)/C=C/c4ccccc4)c2O)OC(C)(C)C=C3)c1O [Rottlerin] | 0.24 |  |
| Cl.O=S(=O)(c1cccc2c(Cl)cccc12)N1CCCNCC1 [ML-9] | 1.06 |  |
| COCc1cc(O)c(O)c(O)c1-c1c(COC)cc(O)c(O)c1O [HBDDE, 2,2′,3,3′,4,4′-Hexahydroxy-1,1′-biphenyl-6,6′-dimethanol dimethyl ether] | 1.07 |  |
| C=CC(=O)c1ccc2ccccc2c1 [ZM 449829] | 1.01 |  |
| CCCCCCCCCCCCCCCC(=O)OC(CC(=O)O)C[N+](C)(C)C.[Cl-] (racemic) [Palmitoyl-DL-carnitine Cl] | 1.05 |  |
| C[C@@H](N)[C@H]1CC[C@H](C(=O)Nc2ccncc2)CC1 [Y-27632] | 1.08 |  |
| CC(C)n1cnc2c(NCc3ccccc3)nc(NCCO)nc21 [N9-Isopropyl-olomoucine] | 1.05 |  |
| NCCNS(=O)(=O)c1cccc2cnccc12 [H-9] | 1.00 | Total Nuclei Ratio [2, 4]: 1.13 |
| N#CC(=C(/N)Sc1ccccc1N)/C(C#N)=C(\N)Sc1ccccc1N [U-0126] |  | Total Nuclei [1]: 0.87 |
| O=c1c(-c2ccc(O)cc2)coc2cc(O)ccc12 [Daidzein] | 1.03 |  |
